Assay results published in ChEMBL document CHEMBL1157733, “Isolation, structure, and bioactivities of abiesadines A-Y, 25 new diterpenes from Abies georgei Orr” (Bioorg Med Chem, 2010).
Converted amounts (≈) assume the structure as drawn.

How the values were obtained:
[1] = Inhibition of TNF-alpha-induced NF-kappaB activity in human pNF-kappaB-luc-293 cells; format: cell-based; conditions: HEK293
[2] = tested on: RAW264.7; test: Antiinflammatory activity in mouse RAW264.7 cells assessed as inhibition of LPS-induced NO release; format: functional, cell-based
[3] = Antiproliferative activity against human QGY7703 cells; format: functional, cell-based; conditions: QGY-7703
[4] = tested on: LoVo; test: Antiproliferative activity against human LoVo cells; format: functional, cell-based

IC50 [1]: > 100 mg/L
IC50 [2]: > 100 mg/L
IC50 [4]: 24.3 mg/L (≈ 79.3 µM)
Compound: C=C[C@@](C)(O)CCC1C(=C)CC[C@H]2[C@](C)(CO)CCC[C@]12C (some centres undefined) [TORREFEROL]
IC50 [3]: > 25 mg/L
